In patent US5284872A, “Nitrato alkanoic acid derivatives, methods for their production, pharmaceutical compositions containing the derivatives and medicinal uses thereof” (Schwarz Pharma AG, priority 1990, dated 1994):

Key:
[1] = test system: soluble guanylate cyclase; test: Stimulation of soluble guanylate cyclase; assay type: biochemical; details: for stimulation of guanylate cyclase, dependence on cysteine: with or without cysteine
[2] = NO release / rate of NO formation from organic nitrates; details: pH 7.4; for rate of NO formation: 1 mM compound, same conditions as ISDN
[3] = test system: precontracted rat aortic rings; test: Relaxation of precontracted rat aortic rings; details: for EC50: read-out: EC50 of concentration-dependent relaxation; for potency relative to ISDN (factor): versus isosorbid dinitrate
Text: Compounds SPM 5185 and SPM 5186 caused a similar concentration-dependent relaxation of precontracted rat aortic rings with a potency exceeding that of ISDN (isosorbid dinitrate) by a factor of 5 (EC50 approx. 10^-6 M).

[4] = test system: normotonous conscious rats and spontaneous hypertensive rats; test: Peroral application to conscious rats: arterial pressure and heart rate; assay type: in vivo, rat
[5] = test system: conscious beagle dogs; test: Hemodynamic profile in conscious beagle dogs; assay type: in vivo, beagle dog; details: for mean arterial and venous pressure: 0.01-1 μmol/kg i.v. and 1-10 μmol/kg p.o.; for arterial vessel compliance / cardiac output: i.v. and p.o.; for effectiveness in reducing arterial and central venous pressure compared with GTN (dose-response curves): versus GTN and IS-5-N
Text: The hemodynamic profile of SPM 5185 and SPM 5186 in direct comparison to classical nitrates was investigated in conscious beagle dogs.

[6] = test system: normotonous (WKY) and spontaneously hypertensive rats (SHR); test: Endothelium dependent and independent blood pressure regulation in chronically instrumented conscious rats (acetylcholine and adenosine as test stimuli); assay type: in vivo, rat; details: single oral application
Text: The effect of a single peroral application of SPM 5186 on endothelium dependent and independent blood pressure regulation was investigated in chronically instrumented conscious rats with acetylcholine and adenosine serving as test stimuli.

stimulation of soluble guanylate cyclase ([1]; absence of exogenous cysteine)	EC50 [3]	Compound	effect of addition of cysteine on enzyme stimulation ([1]; addition of cysteine)	spontaneous NO release ([2]; absence of exogenous cysteine, concentration of 1 mM)	potency relative to ISDN (factor) [3]	stimulation of guanylate cyclase, dependence on cysteine [1]	rate of NO formation [2]	heart rate ([4]; normotonous conscious rats)	mean arterial pressure ([4]; normotonous conscious rats)	estimated duration of action [5]	mean arterial and venous pressure [5]	arterial vessel compliance [5]	cardiac output [5]	effectiveness in reducing arterial and central venous pressure compared with GTN (dose-response curves) [5]	systolic and diastolic arterial blood pressure ([4]; same dose, spontaneous hypertensive rats)	alteration of endogenous dilator mechanisms [6]
stimulated soluble guanylate cyclase		CCOC(=O)[C@H](CS)NC(=O)C(C)(C)CO[N+](=O)[O-] [SPM 3672, nitratopivaline carboxylic acid-L-cysteine ethyl ester, reference compound]	did not further enhance enzyme stimulation	42.7±9.8 nM NO/min												
	~1000 nM	CCOC(=O)[C@H](CSC(=O)C(C)NC(C)=O)NC(=O)C(C)(C)CO[N+](=O)[O-] (stereo partly drawn) [SPM 5185, N-nitrato-pivaloyl-S-(N-acetyl-alanyl)-L-cysteine ethyl ester]			5	stimulated guanylate cyclase only in the presence of cysteine	35.1±5.1 nM NO/min	only a slight increase	nearly no influence	long-acting nitrates	dose-dependent decrease	enhanced	remained unaffected	even more effective than the most potent classical nitrate GTN		
	~1000 nM	CCOC(=O)[C@H](CSC(=O)CNC(C)=O)NC(=O)C(C)(C)CO[N+](=O)[O-] [SPM 5186, N-nitrato-pivaloyl-S-(N-acetyl-glycyl)-L-cysteine ethyl ester]			5	stimulated guanylate cyclase only in the presence of cysteine	24.8±5.4 nM NO/min			long-acting nitrates	dose-dependent decrease	enhanced	remained unaffected	even more effective than the most potent classical nitrate GTN	marked decrease	Neither in normotonous (WKY) nor in spontaneously hypertensive rats (SHR) could any significant alteration of endogenous dilator mechanisms be observed
